Data from PubChem BioAssay (NCI).
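Values below derive from 48-hour exposures of cells grown in 96-well plates, with endpoints linearly interpolated between the two concentrations bracketing the appropriate inhibition level. TGI: concentration producing complete growth inhibition.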

Tests used:
Test in all cases: inhibition of tumour cell growth, NCI panel, 48 h
786-0 renal = system: 786-0 renal
HL-60(TB) leukemia = system: HL-60(TB) leukemia
SF-268 CNS = system: SF-268 CNS
SNB-75 CNS = system: SNB-75 CNS
SK-MEL-28 melanoma = system: SK-MEL-28 melanoma
DU-145 prostate = system: DU-145 prostate
CCRF-CEM leukemia = system: CCRF-CEM leukemia
HT29 colon = system: HT29 colon
A549 NSCLC = system: A549 NSCLC
SK-OV-3 ovarian = system: SK-OV-3 ovarian
PC-3 prostate = system: PC-3 prostate
HCT-116 colon = system: HCT-116 colon
SK-MEL-5 melanoma = system: SK-MEL-5 melanoma
KM12 colon = system: KM12 colon
NCI-H460 lung = system: NCI-H460 lung

Compound	TGI (786-0 renal)	TGI (HL-60(TB) leukemia)	TGI (SF-268 CNS)	TGI (SNB-75 CNS)	TGI (SK-MEL-28 melanoma)	TGI (DU-145 prostate)	TGI (CCRF-CEM leukemia)	TGI (HT29 colon)	TGI (A549 NSCLC)	TGI (SK-OV-3 ovarian)	TGI (PC-3 prostate)	TGI (HCT-116 colon)	TGI (SK-MEL-5 melanoma)	TGI (KM12 colon)	TGI (NCI-H460 lung)
O=C1/C(=C\c2ccc(O)cc2)CCC/C1=C/c1ccc(Cl)c(Cl)c1	6.05 µM	4.94 µM	11.9 µM	11.8 µM	13.9 µM	9.8 µM	1.2 µM	3.54 µM	15 µM	17 µM	12.7 µM	4.01 µM	19.6 µM	3.77 µM	
COc1cc(O)c2c(=O)cc(-c3ccc(O)cc3O)oc2c1CC=C(C)C	> 100 µM	34.4 µM	63.4 µM	46.1 µM	> 100 µM	> 100 µM	63 µM	16.3 µM	29.7 µM		27.1 µM	32.4 µM	47.9 µM	21.5 µM	27.7 µM
CNC1=C(C)C(=O)C(=O)C([C@H](C)CCC=C(C)C)=C1O	> 95.3 µM	6.88 µM	> 100 µM	> 94.4 µM	> 100 µM	> 100 µM	> 29.4 µM	> 100 µM	> 100 µM	83.3 µM	98.7 µM	> 100 µM	41.4 µM	> 100 µM	> 100 µM
O=C1/C(=C/c2ccccc2O)N=C(c2ccccc2)N1C1Nc2cc3c(cc2S1)NC(N1C(=O)/C(=C/c2ccccc2O)N=C1c1ccccc1)S3 (configuration not stated)	> 100 µM	> 100 µM	59.6 µM		> 100 µM	> 100 µM	> 100 µM	> 100 µM		> 100 µM	> 100 µM	> 100 µM	> 100 µM	> 100 µM	> 100 µM
CCc1c2c([nH]c(=S)c1C#N)CCC2	> 100 µM	> 100 µM	> 100 µM	> 100 µM	> 100 µM	> 100 µM	> 100 µM	> 100 µM	> 100 µM	> 100 µM	> 100 µM	> 100 µM	> 100 µM	> 100 µM	> 100 µM
O=[N+]([O-])/C(C(Cl)=C(Cl)Cl)=C(\N1CCOCC1)n1nnc2ccccc21	44.8 µM		40 µM	42.4 µM	42.6 µM	37.5 µM			42.7 µM	79.2 µM	30.8 µM	> 100 µM	35.3 µM	45.6 µM	45.6 µM
Cc1csc2c(=O)n(C3OC(CO)C(O)C3O)c(=O)[nH]c12 (configuration not stated)	> 100 µM	> 100 µM	> 100 µM	> 100 µM	> 100 µM	> 100 µM	> 100 µM	> 100 µM	> 100 µM		> 100 µM	> 100 µM	> 100 µM	> 100 µM	> 100 µM
O=C1CCC2C(O)c3cc4c(cc3C(c3ccc5c(c3)OCO5)N12)OCO4 (configuration not stated)	> 100 µM	> 100 µM	52.5 µM	41.5 µM	> 100 µM	> 100 µM	> 100 µM	> 100 µM	> 100 µM	> 100 µM	> 100 µM	> 100 µM	> 100 µM	> 100 µM	> 100 µM
[N-]=[N+]=Nc1ccccc1C(=O)N1C(=O)c2ccccc2C(=O)N(C(=O)c2ccccc2N=[N+]=[N-])c2ccccc21	> 100 µM		> 100 µM	64 µM	> 100 µM	> 100 µM	84.6 µM	> 100 µM	> 100 µM	> 100 µM	> 100 µM	> 100 µM	> 100 µM	> 100 µM	> 100 µM
O=C1c2cc(Cl)ccc2-n2cnnc2C2CSCN12 (configuration not stated)	> 100 µM		> 100 µM	> 100 µM	> 100 µM	> 100 µM	> 100 µM	> 100 µM	> 100 µM	> 100 µM	> 100 µM	> 100 µM	> 100 µM	> 100 µM	> 100 µM
Cc1ccc2c(c1)[nH]c(=S)n2/C=C1\C(=O)Oc2ccccc2C1=O	> 100 µM	> 100 µM	> 100 µM	> 100 µM	> 100 µM	> 100 µM	> 100 µM	> 100 µM	> 100 µM		> 100 µM	> 100 µM	> 100 µM	> 100 µM	> 100 µM
COC(=O)/C=C(/C)n1nc2ccccc2n1	> 100 µM		> 100 µM	> 100 µM	> 100 µM	> 100 µM	> 100 µM	> 100 µM	> 100 µM	> 100 µM	> 100 µM	> 100 µM	> 100 µM	> 100 µM	> 100 µM
O=C1C(Cl)C2(CC(/C=C/c3ccccc3Cl)=NN2c2cccc(S(=O)(=O)O)c2)N1c1nc2ccccc2s1 (configuration not stated)	62.3 µM	> 100 µM	> 100 µM	> 100 µM	> 100 µM	87.5 µM	33.9 µM	> 100 µM	> 100 µM		> 100 µM	> 100 µM	> 100 µM	> 100 µM	> 100 µM
C=CCNC1=C2C[C@@H](C)C[C@@H](OC)[C@H](OC(=O)CCN)[C@H](C)/C=C(\C)[C@@H](OC(N)=O)[C@H](OC)/C=C\C=C(/C)C(=O)NC(=CC1=O)C2=O	17 µM	17.9 µM	25.5 µM	9.63 µM	44.2 µM	16 µM		18.7 µM	18.5 µM	11 µM		13.6 µM	17.4 µM	11.2 µM	15.2 µM
CS(=O)(=O)c1nc(-c2cc3c(c(S(C)(=O)=O)n2)CCC3)cc2c1CCCCC2	> 100 µM	> 100 µM	92.2 µM	24.7 µM	> 100 µM	> 100 µM	> 100 µM	> 100 µM	> 100 µM	34.9 µM	> 100 µM	> 100 µM	> 100 µM	> 100 µM	
Clc1ccc(NCc2nnc(CCCCCCCCc3nnc(CNc4ccc(Cl)cc4)o3)o2)cc1	> 100 µM		> 100 µM	> 100 µM		> 100 µM	> 100 µM	> 100 µM	> 100 µM	> 100 µM	> 100 µM	> 100 µM	> 100 µM	> 100 µM	> 100 µM
